From ChEMBL document CHEMBL1201862, “PubChem BioAssay data set” (2004)
One block for each molecule: values may come before it. Activity calls are given as the source filed them. Unless noted, no cut-off for these calls is given here.

Assays:
NADPH oxidase 1 = biological target: T1, NADPH oxidase 1 (Homo sapiens, UniProt Q9Y5S8); assay: Late-stage luminescence-based cell-based dose response assay to identify inhibitors of NADPH oxidase 1 (NOX1): Synthesized analogs 2.; assay type: functional
T1 sequence (Q9Y5S8 whole entry): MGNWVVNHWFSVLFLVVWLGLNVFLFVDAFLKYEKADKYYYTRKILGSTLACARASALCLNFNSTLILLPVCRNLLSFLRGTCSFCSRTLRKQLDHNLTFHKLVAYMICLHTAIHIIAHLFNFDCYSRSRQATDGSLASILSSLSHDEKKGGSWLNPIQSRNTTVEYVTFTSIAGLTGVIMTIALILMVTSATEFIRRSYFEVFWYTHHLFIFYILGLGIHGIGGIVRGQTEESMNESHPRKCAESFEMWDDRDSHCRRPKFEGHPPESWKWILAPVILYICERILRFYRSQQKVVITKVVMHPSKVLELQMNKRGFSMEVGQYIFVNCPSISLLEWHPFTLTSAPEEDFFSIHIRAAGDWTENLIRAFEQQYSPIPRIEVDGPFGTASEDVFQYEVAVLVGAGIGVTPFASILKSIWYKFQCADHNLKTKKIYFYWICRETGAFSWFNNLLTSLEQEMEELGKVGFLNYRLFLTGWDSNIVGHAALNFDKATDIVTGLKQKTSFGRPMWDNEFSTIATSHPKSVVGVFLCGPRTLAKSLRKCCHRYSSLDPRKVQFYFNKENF

Cytochrome P450 2C19 = Cytochrome P450 2C19 (Homo sapiens, UniProt P33261); assay: qHTS Assay for Inhibitors and Substrates of Cytochrome P450 2C19. [Related pubchem assays: 410 ]; assay type: ADME; settings: read-out: Potency
[1] = HPDE-C7 pancreatic duct cell viability loss – fluorescence, HTS (AID 430); assay type: functional, cell-based; settings: Homo sapiens
[2] = viability loss of HPDE-C7K cells – cell-based, fluorescence, HTS, primary screen (AID 431); assay type: functional; settings: Homo sapiens
[3] = biological target: Transitional endoplasmic reticulum ATPase (Homo sapiens, UniProt P55072, C522A); assay: Luminescence counterscreen assay for p97 inhibitors: dose response biochemical high throughput screening assay to identify inhibitors of the C522A mutant p97 ATPase: synthesized compounds. [Related pubchem assays: 1481, 1517, 1551 ]
[4] = biological target: Transitional endoplasmic reticulum ATPase (Homo sapiens, UniProt P55072); assay: Luminescence dose response biochemical high throughput screening assay for inhibitors of the p97 ATPase: synthesized compounds. [Related pubchem assays: 1481, 1517 ]
Transitional endoplasmic reticulum ATPase (Homo sapiens, UniProt P55072), sequence (P55072 whole entry): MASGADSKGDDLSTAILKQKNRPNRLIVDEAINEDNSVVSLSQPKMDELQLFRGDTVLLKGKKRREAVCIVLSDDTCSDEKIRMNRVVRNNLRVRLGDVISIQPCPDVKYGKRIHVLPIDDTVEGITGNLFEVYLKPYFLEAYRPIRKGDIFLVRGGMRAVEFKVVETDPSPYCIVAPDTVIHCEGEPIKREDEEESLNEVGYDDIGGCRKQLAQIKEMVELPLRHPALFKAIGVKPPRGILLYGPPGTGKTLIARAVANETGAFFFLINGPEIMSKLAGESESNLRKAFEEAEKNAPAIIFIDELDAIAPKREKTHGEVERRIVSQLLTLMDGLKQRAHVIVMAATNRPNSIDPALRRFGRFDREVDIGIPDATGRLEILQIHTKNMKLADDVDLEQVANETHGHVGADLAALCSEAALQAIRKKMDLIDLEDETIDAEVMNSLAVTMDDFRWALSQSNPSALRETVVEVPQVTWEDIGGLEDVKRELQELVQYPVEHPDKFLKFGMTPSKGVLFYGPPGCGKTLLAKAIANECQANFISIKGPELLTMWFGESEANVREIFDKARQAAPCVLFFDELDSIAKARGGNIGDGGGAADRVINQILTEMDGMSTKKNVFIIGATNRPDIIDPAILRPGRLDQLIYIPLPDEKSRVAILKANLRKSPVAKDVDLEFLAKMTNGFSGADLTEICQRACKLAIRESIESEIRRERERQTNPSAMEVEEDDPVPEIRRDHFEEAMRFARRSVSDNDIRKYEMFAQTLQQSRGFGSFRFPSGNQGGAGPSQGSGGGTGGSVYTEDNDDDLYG

Cytochrome P450 2C19, sequence (P33261 whole entry): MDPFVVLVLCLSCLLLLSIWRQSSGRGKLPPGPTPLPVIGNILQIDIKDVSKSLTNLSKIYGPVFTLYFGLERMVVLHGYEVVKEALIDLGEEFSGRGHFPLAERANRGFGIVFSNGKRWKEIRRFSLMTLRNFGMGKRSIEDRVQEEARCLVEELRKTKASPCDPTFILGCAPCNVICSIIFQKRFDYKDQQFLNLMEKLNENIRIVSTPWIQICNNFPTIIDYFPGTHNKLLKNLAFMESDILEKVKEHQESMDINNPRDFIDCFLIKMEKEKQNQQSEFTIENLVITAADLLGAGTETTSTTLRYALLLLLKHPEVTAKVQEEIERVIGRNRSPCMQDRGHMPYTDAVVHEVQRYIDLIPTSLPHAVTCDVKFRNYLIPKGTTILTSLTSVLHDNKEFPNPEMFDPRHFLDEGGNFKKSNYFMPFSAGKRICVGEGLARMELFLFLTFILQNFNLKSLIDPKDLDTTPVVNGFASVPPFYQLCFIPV
Transitional endoplasmic reticulum ATPase (Homo sapiens, UniProt P55072, C522A), sequence (P55072 2-806 C522A limits assumed): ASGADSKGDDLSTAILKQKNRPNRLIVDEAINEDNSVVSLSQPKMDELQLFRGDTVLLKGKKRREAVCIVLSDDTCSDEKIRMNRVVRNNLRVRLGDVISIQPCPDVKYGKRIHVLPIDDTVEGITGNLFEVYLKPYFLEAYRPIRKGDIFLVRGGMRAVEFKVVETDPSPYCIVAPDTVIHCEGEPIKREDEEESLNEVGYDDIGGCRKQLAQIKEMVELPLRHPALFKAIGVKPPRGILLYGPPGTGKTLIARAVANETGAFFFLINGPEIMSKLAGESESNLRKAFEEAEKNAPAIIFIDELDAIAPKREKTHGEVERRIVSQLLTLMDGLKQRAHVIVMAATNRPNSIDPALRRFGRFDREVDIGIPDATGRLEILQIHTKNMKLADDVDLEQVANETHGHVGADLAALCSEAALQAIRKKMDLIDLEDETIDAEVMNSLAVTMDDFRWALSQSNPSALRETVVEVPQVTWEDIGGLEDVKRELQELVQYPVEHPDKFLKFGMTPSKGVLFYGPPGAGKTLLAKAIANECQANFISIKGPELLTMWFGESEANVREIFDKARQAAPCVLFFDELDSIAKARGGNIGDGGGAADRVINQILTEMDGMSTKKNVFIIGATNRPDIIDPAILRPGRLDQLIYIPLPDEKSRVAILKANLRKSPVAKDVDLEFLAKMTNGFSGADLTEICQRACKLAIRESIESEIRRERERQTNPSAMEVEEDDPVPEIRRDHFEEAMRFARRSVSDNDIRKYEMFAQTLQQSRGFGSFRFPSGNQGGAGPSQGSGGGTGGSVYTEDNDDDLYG

IC50 (NADPH oxidase 1): > 50 µM (not active)
Structure (SMILES): CN1c2ccccc2Sc2cc(Br)ccc21

Structure (SMILES): Cc1nc2sccn2c(=O)c1CCN1CCC(=C(c2ccccc2)c2ccc(F)cc2)CC1
AC50 (Cytochrome P450 2C19): 15.8 µM (inconclusive)
EC50 [1]: 18.3 µM (active)
EC50 [2]: 17.4 µM (active)

IC50 [3]: > 50 µM (not active)
IC50 [4]: > 50 µM (not active)
Structure (SMILES): CCOC(=O)/C(C#N)=C/c1ccc(C#N)cc1
